Tests used:
[1] = system: CD34+ HSPCs; assay: Cell growth and viability (trypan blue) of edited CD34+ HSPCs during differentiation (Example 5); conditions: day 0 to day 18 post-editing; inhibitor 1 or 3 μM, i53 1 μg mRNA; data not shown
Description: Briefly, frozen CD34+ HSPCs isolated from Plerixafor mobilized peripheral blood, obtained from healthy human donors were thawed. The cells were seeded in CD34 cell media at a cell density of 2×10^5 cells/mL. Cells were cultured at 37° C. under normoxic conditions (i.e., oxygen 20%). Gene-editing was performed following two days of in vitro culture. For editing, 5×10^5 CD34+ HSPCs were electroporated with RNP containing 200 μg/ml Cas9 and 200 μg/ml T107 sgRNA. […] The cells were transduced with AAV.310, 1 hour prior to electroporation, at a dose of 10,000 MOI. The cells were plated in CD34 cell medium containing Compound 296 or Compound 984 immediately following the electroporation, at a concentration of 1 μM or 3 μM for 48 hours. […] Post electroporation cells were resuspended in CD34 cell medium at a density of 2-5×10^5 cells/ml and incubated at 37° C. for 48 hours.
Following editing, cells were differentiated to erythrocytes. Briefly, cells were plated in fresh CD34 media at a density of 2×10^5 cells/mL, and re-plated at similar density in fresh CD34 media on days 3 and 5 post-editing. On day 7 and 10 post-editing, the cells were incubated in Phase II media at a density of 2.5×10^5 and 1×10^6 cells/mL respectively. On day 12 post-editing, the cells were incubated in Phase III media at a density of 1×10^6 cells/mL. On day 14 cells were plated at a density of 2×10^6 cells/ml in Phase III media and maintained till day 18 at 37° C. Cell growth was measured at various time points between day 0 and day 18 post-editing, and the percentage of viable cells was measured by staining with tryphan blue.

[2] = system: HBB gene locus in CD34+ HSPCs; assay: HDR efficiency with DNA-PK inhibitors for editing the HBB gene in CD34+ HSPCs; NGS (Example 4); type: cell-based, human
Description: The cells were transduced with AAV donor template for 1 hour at 37° C. prior to electroporation. AAV-encoded homology donor template referred to as “AAV.310”, which is identified by sequence in Table 8. The AAV.310 donor template encodes a SCD mutation, specifically valine at the 6th codon downstream the HBB start codon (E6V). The cells were treated with AAV at a dose of 10,000 MOI.
Edited cells were evaluated for viability using trypan blue, and for incorporation of gene-edits at 2 days post-electroporation. The efficiency of HDR repair for introducing an E6V mutation in the HBB gene was quantified by NGS assay as described in Example 1, and the frequency of INDELs induced at the T107 cut site was also evaluated by NGS analysis.
The INDELs species identified in edited cells were further evaluated to determine frequency of repair by NHEJ or MMEJ repair pathways. An INDEL of ±1 nt was considered due to NHEJ repair; a deletion of −9 nt was considered due to MMEJ repair based on the microhomology present on either side of the T107 cut site. Based on percentage of total reads corresponding to these INDEL species, the ratio of gene edits due to NHEJ and MMEJ repair was evaluated. […] Thus, reduced frequency of INDELs with treatment of compound 296 or i53 is largely due to suppression of the NHEJ repair pathway.

[3] = system: CD34+ HSPCs; assay: Globin and hemoglobin analysis by HPLC on day 18 of differentiation (Example 5); type: cell-based, human; conditions: T107 RNP+AAV.310 alone or combined with the inhibitor
Description: Following editing, cells were differentiated to erythrocytes.
Additionally, on day 18 post-editing, expression of globin monomers was assessed in differentiated cells by HPLC as described in Example 3. […] Accordingly, the editing was sufficient to both introduce the SCD mutation in HBB and result in expression of sickle globin.
Furthermore, production of hemoglobin tetramers was also evaluated by HPLC. The analysis included quantification of HbS tetramer containing sickle-globin (α2β(E6V)2), HbF tetramer (α2γ2), HbA (α2β2), and HbA2 (α2δ2) produced by edited cells. […] Thus, the editing was also sufficient to alter hemoglobin output following in vitro differentiation.

[4] = system: HBB gene in CD34+ HSPCs; assay: In vitro editing with T107 RNP, AAV.310 or AAV.320 and inhibitors before transplantation; NGS and cell growth (Example 6); conditions: for change in cell growth if cells were edited with the inhibitor: T107 RNP+AAV.310 or AAV.320, data not shown; for frequency of HDR relative to editing with T107 RNP and AAV only / frequency of INDELs relative to editing with T107 RNP and AAV only: i53 1 μg mRNA, Compound 984 1 μM or 3 μM
Description: Briefly, frozen CD34+ HSPCs isolated from plerixafor-mobilized peripheral blood obtained from two healthy human donors were thawed and seeded in media with components as described in Example 1. The cells were maintained in culture, and gene-editing was performed following two days of culture. For editing, 5×10^5 CD34+ HSPCs were electroporated with RNP containing 20 μg SpCas9 and 20 μg T107 sgRNA. Electroporation was performed using the CA-137 program of the Lonza Amaxa™ 4D-Nucleofector™. The cells were transduced with AAV.310 or AAV.320 for 1 hour at 37° C. prior to electroporation at a dose of 10,000 MOI. The cells were electroporated and immediately plated in medium containing Compound 984 at 1 μM or 3 μM.
Cells were maintained in culture for two days following electroporation. Fold change in cell-growth between day 0 and day 2 post-electroporation was quantified.
Additionally, gene-edits in HBB were evaluated in CD34+ HSPCs following two days of in vitro culture.

[5] = system: NBSGW mice; assay: In vivo engraftment and persistence of gene-edits of CD34+ HSPCs edited with T107 RNP, AAV and inhibitors (Example 6); parameters: species or system mouse; conditions: 16 weeks, with or without inhibitor
Description: Following two days of in vitro culture, HSPCs were administered by intravenous injection to NBSGW mice at a dose of 0.5×10^6 cells per mouse. Recipient mice were treated with sublethal irradiation (100 cGy) at 1 day prior to administration of HSPCs.
Blood and bone marrow were extracted at 16 weeks following HSPC administration and were evaluated for presence of human hematopoietic cells using flow cytometry as described in Example 2. Additionally, the lineage of human CD45+ cells was determined using markers for human B cells, T cells, myeloid cells, and HSPCs as described in Example 2.
The long term persistence of gene-edited (in HBB gene) HSPCs was evaluated in genomic DNA extracted from mouse bone marrow collected at 16 weeks. The frequency of donor template-encoded gene-edits incorporated in HBB by HDR and the frequency of INDELs at the T107 cut site were quantified by NGS, and are shown in FIG. 7I and FIG. 7J respectively.

[6] = T107 RNP + AAV.310 + i53 (1 μg mRNA)
[7] = T107 RNP + AAV.310 + 0.012 μM compound, 48 hours
[8] = T107 RNP + AAV.310 + 0.037 μM compound, 48 hours
[9] = T107 RNP + AAV.310 + 0.04 μM compound, 48 hours
[10] = T107 RNP + AAV.310 + 3.3 μM compound, 48 hours
[11] = T107 RNP + AAV.310 + 10 μM compound, 48 hours

Molecule	cell growth over time or percent viability vs T107 RNP+AAV.310 edited cells [1]	HbA production compared to control cells [3]	HbS production compared to control cells [3]	expression of sickle-globin compared to control cells [3]	change in cell growth if cells were edited with the inhibitor [4]	frequency of HDR relative to editing with T107 RNP and AAV only [4]	frequency of INDELs relative to editing with T107 RNP and AAV only [4]	percent chimerism in mouse bone marrow and blood [5]	other results
i53: polypeptide inhibitor of 53BP1 (SEQ ID NO: 11), introduced as an mRNA-encoded protein (ORF SEQ ID NO: 10)	No difference	decreased	increased	increased	no substantial change	increased	decreased	comparable	% HDR [2, 6]: 35%; % INDELs [2, 6]: 42%; INDEL species due to MMEJ repair (deletion of −9 nt) ([2]; T107 RNP+AAV.310, Compound 296 at 10 μM, i53 at 1 μg mRNA): did not affect
[2H]c1nc(C)nc([2H])c1-c1cc(NC[C@@H](C)c2cccc3c(C(=O)NC)ccnc23)ncn1 [Compound 984]	No difference	decreased	increased	increased	no substantial change	increased	decreased	comparable	% HDR [2, 7]: 44%; % INDELs [2, 7]: 39%; % HDR [2, 8]: 51%; % INDELs [2, 8]: 36%; % HDR [2, 9]: 42%; % INDELs [2, 9]: 40%; % HDR [2, 10]: 49%; % INDELs [2, 10]: 30%; % HDR [2, 11]: 48%; % INDELs [2, 11]: 33%; reduction of the frequency of INDELs at the T107 cut site compared to control cells ([2]; T107 RNP+AAV.310 with DNA-PK inhibitor): approximately 1.6 fold
